Test results from US5679680A, “α-substituted hydrazides having calpain inhibitory activity” (Warner-Lambert Company, priority 1995, dated 1997).
Values belong to the compound of their own block, whether it stands above or below them. Square brackets hold non-standard residues; d marks the D form. Ends that are not written are not given here. Peptide text beside a SMILES is read from it. Nle = CCCC[C@H](N)C(=O)O

How the values were obtained:
[1] = system: acute myocardiac infraction in dogs; conditions: coronary reperfusion after acute myocardiac infraction; cited from earlier work
ischemic neocortex = conditions: applied directly to the surfaces of ischemic neocortex; cited from earlier work
Human Calpain II = biological target: T1, Human Calpain II (Homo sapiens, UniProt P17655); assay: Calpain II activity, casein substrate, Coomassie microplate assay; assay type: biochemical; conditions: casein 0.5 mg/mL (Table I)
T1 sequence (P17655 1-700): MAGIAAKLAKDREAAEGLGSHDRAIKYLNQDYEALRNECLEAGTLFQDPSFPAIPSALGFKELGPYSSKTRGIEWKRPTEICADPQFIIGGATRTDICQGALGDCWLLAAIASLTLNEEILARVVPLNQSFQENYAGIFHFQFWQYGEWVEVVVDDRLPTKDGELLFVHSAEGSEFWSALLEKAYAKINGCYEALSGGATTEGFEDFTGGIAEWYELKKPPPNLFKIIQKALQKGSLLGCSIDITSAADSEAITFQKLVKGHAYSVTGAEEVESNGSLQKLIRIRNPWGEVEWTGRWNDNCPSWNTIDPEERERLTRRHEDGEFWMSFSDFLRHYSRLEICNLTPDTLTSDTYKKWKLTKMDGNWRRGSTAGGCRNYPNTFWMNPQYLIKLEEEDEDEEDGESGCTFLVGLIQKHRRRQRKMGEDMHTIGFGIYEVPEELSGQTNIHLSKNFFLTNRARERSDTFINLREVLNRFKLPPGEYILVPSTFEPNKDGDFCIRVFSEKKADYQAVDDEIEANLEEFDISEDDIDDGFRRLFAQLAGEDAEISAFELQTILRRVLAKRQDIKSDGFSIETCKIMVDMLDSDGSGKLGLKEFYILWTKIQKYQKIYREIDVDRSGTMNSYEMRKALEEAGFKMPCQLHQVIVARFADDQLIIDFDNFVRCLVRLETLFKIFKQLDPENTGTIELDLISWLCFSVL
T1 sequence (P04632 1-268 partner): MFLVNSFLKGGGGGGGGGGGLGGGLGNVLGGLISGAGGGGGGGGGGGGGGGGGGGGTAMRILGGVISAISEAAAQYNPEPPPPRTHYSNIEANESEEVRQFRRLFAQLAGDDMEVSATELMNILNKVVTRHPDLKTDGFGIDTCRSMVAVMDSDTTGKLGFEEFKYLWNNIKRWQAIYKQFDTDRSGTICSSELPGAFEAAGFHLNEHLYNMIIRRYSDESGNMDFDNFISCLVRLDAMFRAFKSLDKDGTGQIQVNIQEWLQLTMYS
Procedure: (§1) Assay of calpain activity: Calpain I was purified from human erythrocytes as described by Wang K K W, Roufogalis B D, and Villalobo A, Arch Biochem Biophys 1988;267: 317-327. Calpain activity was assayed in a 96-well microplate format (Buroker-Kilgore M and Wang K K W, Anal Bio Chem 1993;208: 387-392). In 250 μL of reaction mixture, substrate casein (0.5 mg/mL) was incubated with 0.01 unit (80-120 ng) calpain I, 20 mM dithiothreitol (DTT), 50 mM Tris-HCl (pH 7.4 at 25° C.) and 4 mM CaCl2 at 25° C. for 60 minutes. Two 100-μL aliquots were taken for Coomassie blue G250 binding analysis to quantify the remaining casein.
(§2) Compound concentrations that cause 50% inhibition (IC50) are as shown (Table I). The second rate of inactivation of calpain I for 2 compounds are also shown.
(§3) Selectivity of α-substituted Hydrazides: Calpain I and II were assayed as described in Example 1. One to 2 ng papain (papaya latex, Sigma, P3125), 1.25 μg trypsin (bovine pancreas, Sigma, T8003), 5 μg thermolysin (Bacillus thermoproteolyticus, Sigma, P1512) were assayed using 0.5 mg/mL casein as substrate in the microplate format (250 μL reaction volume), essentially a described by Buroker-Kilgore, M. and Wang K K W, Anal Biochem 1993;208: 387-392. Cathepsin B (0.002 unit, bovine spleen) was assayed with 50 mM MES (pH 5.5), 100 μM carbobenzoxy-Arg-Arg-4-methoxy-beta-naphthlamide (Cbz-Arg-Arg-MNA), inhibitor, and 2 mM DTT in 200 μL for 60 minutes at room temperature. Fifty-microliter aliquots were transferred to a fluorescence-compatible plate and then read with a Perkin-Elmer fluorometer LS-50B (excitation 340 nm and emission 425 nm). Calcineurin (bovine brain, Sigma) (5 μg, 0.8 unit) was assayed with 10 mM p-nitrophenyl phosphate in 1 mM DTT, 1 mM CaCl2, 1 mM MnCl2, […] calmodulin (CaM, if added), and 50 mM Tris-HCl (pH 7.4) at 25° C. for 60 minutes or more. Production of p-nitrophenol was monitored at 405 nm. Inhibition of these proteases are presented as IC50.

Human Calpain I = biological target: T2, Human Calpain I (Homo sapiens, UniProt P07384); assay: Calpain I activity, casein substrate, Coomassie microplate assay; assay type: biochemical; conditions: for IC50: casein 0.5 mg/mL, pH 7.4, 25° C., 60 minutes (Table I)
T2 construct: Calpain I was purified from human erythrocytes; from tissue; host or cells: human erythrocytes
T2 sequence (P07384 1-714): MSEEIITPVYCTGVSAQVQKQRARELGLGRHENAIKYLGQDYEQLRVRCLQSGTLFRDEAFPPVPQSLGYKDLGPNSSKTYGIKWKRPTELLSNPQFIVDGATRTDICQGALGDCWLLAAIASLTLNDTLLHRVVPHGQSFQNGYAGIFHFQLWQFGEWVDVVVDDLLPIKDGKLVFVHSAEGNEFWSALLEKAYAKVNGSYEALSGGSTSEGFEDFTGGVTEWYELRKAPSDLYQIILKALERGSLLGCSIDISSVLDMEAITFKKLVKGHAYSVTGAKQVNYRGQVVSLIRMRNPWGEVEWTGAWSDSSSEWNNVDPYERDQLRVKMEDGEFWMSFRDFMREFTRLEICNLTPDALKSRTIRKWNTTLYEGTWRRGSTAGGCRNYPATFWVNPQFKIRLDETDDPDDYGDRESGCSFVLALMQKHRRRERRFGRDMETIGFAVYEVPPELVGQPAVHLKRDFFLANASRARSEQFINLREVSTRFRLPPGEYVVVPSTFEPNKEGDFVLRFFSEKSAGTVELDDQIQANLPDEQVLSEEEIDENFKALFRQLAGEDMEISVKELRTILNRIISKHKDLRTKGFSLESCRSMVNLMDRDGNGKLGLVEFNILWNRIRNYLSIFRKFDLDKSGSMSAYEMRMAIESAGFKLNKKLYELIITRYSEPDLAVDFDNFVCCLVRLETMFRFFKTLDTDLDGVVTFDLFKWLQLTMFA
T2 sequence (P04632 1-268 partner): T1 sequence (P04632 1-268 partner)
Procedure: as §1, §2, §3

[2] = system: Spectrin Breakdown in Human Leukemic Molt-4 cells; assay: Cell-based calpain assay: spectrin breakdown in Molt-4 cells treated with calcium ionophore A23187; conditions: 1 hour preincubation, 15 μM A23187, 90 minutes, read-out: IC50 for inhibition of spectrin breakdown (145 kD fragment formation)
Procedure: Calpain inhibitor was added to the wells if desired and preincubated for 1 hour. […] The cells were then lysed with 2% (w/v) SDS, 5 mM EGTA, 5 mM EDTA, 150 mM NaCl, 0.5 mM PMSF, 10 μg/mL AEBSF, 5 μg/mL leupeptin, 10 μg/mL pepstatin, 10 μg/mL TLCK, 10 μg/mL TPCK, and 20 mM Tris-HCl (pH 7.4) at room temperature for 5 to 10 minutes. One hundred microliters of 100% (w/v) TCA was added and total protein precipitate was collected by microcentrifugation. The final pellets were neutralized with Tris base. Protein samples (50 μg) were run on SDS-PAGE with the Tris-glycine running buffer system and transferred onto a PVDF membrane. The blots were probed with an anti-spectrin (nonerythroid) antibody and a second antibody with alkaline phosphatase conjugate. The blots were developed with nitro blue tetrazolium and 5-bromo-4-chloro-3-indolyl-phosphate.

restenosis = conditions: in vivo; cited from earlier work
cataract = conditions: whole animal; cited from earlier work
aggregin = conditions: cited from earlier work
platelet = conditions: cited from earlier work

Compound: CC(C)CCNC(=O)[C@H](CC(C)C)NC(=O)[C@H]1O[C@@H]1C(=O)O [Example E64c]
- Size of infarct [1]: significantly reduce the size of infract

Compound: CCNC(=O)C(=O)C(CC)NC(=O)C(CC(C)C)NC(=O)OCc1ccccc1 (stereo not drawn) [AK275]
- Size of the expected infarct (ischemic neocortex): dramatically and unequivocally reduce the size of the expected infarct

- IC50 (Human Calpain II): 10.8 µM
- IC50 (Human Calpain I): 8.28 µM
Compound: Cn1c(=O)c(=NNC(=O)CCl)[nH]c2ccccc21 [Example 14, 2-Chloro-acetic acid (4-methyl-3-oxo-3,4-dihydro-1H-quinoxalin-3-ylidene)-hydrazide]

- IC50 (Human Calpain II): 0.574 µM
- IC50 [2]: 25 µM
- IC50 (Human Calpain I): 0.697 µM
Compound: O=C(CBr)NN=c1[nH]c2ccccc2n(-c2ccccc2)c1=O [Example 4, 2-Bromo-acetic acid (3-oxo-4-phenyl-3,4-dihydro-1H-quinoxalin-2-ylidene)-hydrazide]

- IC50 (Human Calpain II): 0.158 µM
- IC50 [2]: 15 µM
- Ki/[I] Calpain I (second rate of inactivation) (Human Calpain I): 63.7 M⁻¹ s⁻¹
- IC50 (Human Calpain I): 0.486 µM
Compound: O=C(CCl)NN=c1[nH]c2ccccc2n(-c2ccc(Cl)cc2)c1=O [Example 9, 2-Chloro-acetic acid [4-(4-chloro-phenyl)-3-oxo-3,4-dihydro-1H-quinoxalin-2-ylidene]-hydrazide]

Compound: CCCC[C@@H](C=O)NC(=O)[C@H](CC(C)C)NC(=O)[C@H](CC(C)C)NC(C)=O [calpain inhibitor I] (Ac-Leu-Leu-[Nle]-aldehyde)
- Restenosis (restenosis): can inhibit restenosis

Compound: CC(C)C[C@H](NC(=O)[C@H]1O[C@@H]1C(=O)O)C(=O)NCCCCN=C(N)N [Example E64]
- Rate of cataract formation (cataract): reduce the rate of cataract formation

Compound: Phe-Gln-Val-Val-Cys(3-nitro-2-thiopyridine)-Gly-NH2 (FQVVC(3‑nitro‑2‑thiopyridine)G-NH2)
- Aggregin breakdown (aggregin): blocked aggregin breakdown
- Platelet aggregation (platelet): blocked aggregin breakdown and platelet aggregation
